Reference: patent US4638005A, “Monoquaternized pyrazinium compounds and their use as electron carriers in photosynthetic processes” (The Coca-Cola Company, priority 1983, dated 1987)

Tests used:
[1] = molecular target: T1, nitrogenase (Azotobacter vinelandii, UniProt P00459); assay: Chloroplast-coupled reduction of acetylene to ethylene by nitrogenase (electron carrier bioassay of Benemann); type: biochemical; conditions: for ACTIVITY RELATIVE TO FERREDOXIN (%) / ACTIVITY (nmoles C2 H4 /mg protein/min): Table I; for ACTIVITY RELATIVE TO FERREDOXIN (%): acetylene reduction to ethylene; for ACTIVITY (nmoles C2 H4 /mg protein/min): illuminated spinach chloroplasts, synthetic carriers 2 mM, clostridial ferredoxin 0.2 mM; for ETHYLENE FORMATION % Ferredoxin Activity: Table III ranking; for % FERREDOXIN ACTIVITY: Table IV, acetylene reduction
T1 construct: the nitrogenase sample was prepared from a culture of Azotobacter vinelandii; endogenous in cells; host or cells: Azotobacter vinelandii culture; French press lysate, 10,000 x g supernatant (crude)
Protocol: The activity of the pyrazinium compounds as electron carriers in an illuminated photocouple process using isolated chloroplasts and the reductive enzyme catalyst nitrogenease has been determined using the bioassay of Benemann, et al., Proc. Natl. Acad. Sci. USA, 64, 1079(1969). In this method, the carrier activity is measured as a function of nitrogenase reduction of acetylene to ethylene, the rate of production of ethylene being the direct measurement.
(§1) For the bioassay, the nitrogenase sample was prepared from a culture of Azotobacter vinelandii grown to a cell density of about 1 g/l. The cells harvested by centrifugation were broken in a French press, cell debris spun off at 10,000 XG for 1 hr., and the supernatant containing 40 mg/ml protein was used in the bioassay experiments. […] chloroplasts from spinach leaves as described by Benemann were also used. The synthetic carriers were tested in aqueous solutions at concentrations of 2 mM, while the standard, clostridial ferredoxin, was used in 0.2 mM aqueous solution. The concentrations of carriers in the assay mixtures were chosen so as to guarantee carrier saturation conditions. Thus, the observed differences in rates of ethylene production from the substrate acetylene were assigned directly to variations in the efficiency of electron transfer from the illuminated chloroplast to the nitrogenase. The results obtained for acetylene reduction (nitrogen fixation) using the pyrazinium compounds of Examples 1 through 42 are summarized in Table I and are expressed as nmoles of ethylene produced per mg protein per minute.

[2] = Polarographic half-wave potential (first wave reduction); type: physicochemical; conditions: 0.1 M phosphate buffer pH 7.55, 25° C.
Excerpt: Sci., 65, 1471(1976). Therefore, it was of interest to measure polarographically the half-wave potentials of the several pyrazinium salts under consideration, to determine the possible effect of structure upon their redox potentials.

[3] = molecular target: T1, nitrogenase; assay: Chloroplast-coupled evolution of hydrogen by nitrogenase in the absence of substrate; type: biochemical; conditions: Table II, hydrogen evolution; for ACTIVITY (nmoles H2 /mg protein/min): no nitrogen or acetylene, synthetic carriers 2 mM, ferredoxin 0.2 mM
Protocol: as §1
It has been recognized for sometime the connection existing between hydrogen metabolism and nitrogen fixation. […] When nitrogenase was purified extensively, as mentioned above, it became apparent that in addition to nitrogen, nitrogenase also catalyzed the reduction of protons. The evolution of hydrogen is particularly active in the absence of the normal substrates for nitrogenase (nitrogen, acetylene, cyanide, azide, etc.), and is dependent upon a strong reductant and adenosine triphosphate hydrolysis. Since hydrogen evolution is not inhibited by CO, but reduction of nitrogen and other substrates is, the reduction of protons presumably occurs at a site other than the site of nitrogen reduction, H. C. Winter, et. al., Ann Rev. Biochem, 45, 409 (1976). Accordingly, with the same bioassay system and with exclusion of nitrogen, and acetylene, the activity of the pyrazinium compounds to act as carriers for production of hydrogen has been determined.
The results of this study, which are summarized in Table II, indicate that the pyrazinium salts that mediate the reduction of acetylene with electrons from the photoexcited chloroplast, are also mediating the reduction of protons by the nitrogenase.

T1 sequence (P00459 2-290 limits assumed): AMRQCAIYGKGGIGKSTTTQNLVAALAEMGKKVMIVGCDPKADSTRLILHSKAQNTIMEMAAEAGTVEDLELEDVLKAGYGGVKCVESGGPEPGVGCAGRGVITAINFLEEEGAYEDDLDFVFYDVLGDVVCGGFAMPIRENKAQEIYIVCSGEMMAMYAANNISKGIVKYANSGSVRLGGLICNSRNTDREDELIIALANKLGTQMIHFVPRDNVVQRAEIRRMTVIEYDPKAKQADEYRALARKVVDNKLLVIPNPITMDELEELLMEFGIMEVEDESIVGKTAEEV

**Q.** With `CCCC(c1c[n+](C)ccn1)S(=O)(=O)[O-]` (stereo not shown) [Compound 1200] as the molecule, how does the “ACTIVITY RELATIVE TO FERREDOXIN (%)” value [1] read?
**A.** 107%

**Q.** And the “ACTIVITY (nmoles C2 H4 /mg protein/min)” value [1]?
**A.** 14.5 nmoles C2 H4 /mg protein/min

**Q.** And the “ETHYLENE FORMATION % Ferredoxin Activity” value [1]?
**A.** 107%

**Q.** What about the “% FERREDOXIN ACTIVITY” value [1] of the same molecule?
**A.** 107%

**Q.** What about the “E1/2 vs. SCE (mV)” value [2] of the same molecule?
**A.** -699 mV

**Q.** And the “ACTIVITY RELATIVE TO FERREDOXIN (%)” value [3]?
**A.** 143%

**Q.** And the “ACTIVITY (nmoles H2 /mg protein/min)” value [3]?
**A.** 38.1 nmoles H2 /mg protein/min

**Q.** Which “ACTIVITY RELATIVE TO FERREDOXIN (%)” value [1] does the source give for `C[n+]1ccnc(C(=O)O)c1` [Compound 4400] here?
**A.** 0%

**Q.** And the “ACTIVITY (nmoles C2 H4 /mg protein/min)” value [1]?
**A.** 0.0 nmoles C2 H4 /mg protein/min

**Q.** What about the “ETHYLENE FORMATION % Ferredoxin Activity” value [1] of the same molecule?
**A.** 0%

**Q.** And the “% FERREDOXIN ACTIVITY” value [1]?
**A.** 0%

**Q.** And the “E1/2 vs. SCE (mV)” value [2]?
**A.** -613 mV

**Q.** And the “ACTIVITY RELATIVE TO FERREDOXIN (%)” value [3]?
**A.** 0%

**Q.** What about the “ACTIVITY (nmoles H2 /mg protein/min)” value [3] of the same molecule?
**A.** 0.0 nmoles H2 /mg protein/min

**Q.** Which “ACTIVITY RELATIVE TO FERREDOXIN (%)” value [1] does the source give for `C[n+]1ccnc(CCS(=O)(=O)[O-])c1` [Compound 2600] here?
**A.** 98%

**Q.** And the “ACTIVITY (nmoles C2 H4 /mg protein/min)” value [1]?
**A.** 13.2 nmoles C2 H4 /mg protein/min

**Q.** And the “ETHYLENE FORMATION % Ferredoxin Activity” value [1]?
**A.** 98%

**Q.** What about the “% FERREDOXIN ACTIVITY” value [1] of the same molecule?
**A.** 98%

**Q.** What about the “E1/2 vs. SCE (mV)” value [2] of the same molecule?
**A.** -730 mV

**Q.** What about the “ACTIVITY RELATIVE TO FERREDOXIN (%)” value [3] of the same molecule?
**A.** 154%

**Q.** And the “ACTIVITY (nmoles H2 /mg protein/min)” value [3]?
**A.** 41.2 nmoles H2 /mg protein/min

**Q.** Which “ACTIVITY RELATIVE TO FERREDOXIN (%)” value [1] does the source give for `C[n+]1ccnc(CS(=O)(=O)[O-])c1` [Compound 2800] here?
**A.** 61%

**Q.** And the “ACTIVITY (nmoles C2 H4 /mg protein/min)” value [1]?
**A.** 8.3 nmoles C2 H4 /mg protein/min

**Q.** And the “ETHYLENE FORMATION % Ferredoxin Activity” value [1]?
**A.** 61%

**Q.** What about the “% FERREDOXIN ACTIVITY” value [1] of the same molecule?
**A.** 61%

**Q.** And the “E1/2 vs. SCE (mV)” value [2]?
**A.** -690 mV

**Q.** And the “ACTIVITY RELATIVE TO FERREDOXIN (%)” value [3]?
**A.** 140%

**Q.** What about the “ACTIVITY (nmoles H2 /mg protein/min)” value [3] of the same molecule?
**A.** 37.3 nmoles H2 /mg protein/min

**Q.** Which “ACTIVITY RELATIVE TO FERREDOXIN (%)” value [1] does the source give for `Cc1cnc(CS(=O)(=O)[O-])c[n+]1C` [Compound 3200] here?
**A.** 98%

**Q.** And the “ACTIVITY (nmoles C2 H4 /mg protein/min)” value [1]?
**A.** 13.3 nmoles C2 H4 /mg protein/min

**Q.** And the “ETHYLENE FORMATION % Ferredoxin Activity” value [1]?
**A.** 98%

**Q.** What about the “% FERREDOXIN ACTIVITY” value [1] of the same molecule?
**A.** 98%

**Q.** And the “E1/2 vs. SCE (mV)” value [2]?
**A.** -673 mV

**Q.** And the “ACTIVITY RELATIVE TO FERREDOXIN (%)” value [3]?
**A.** 161%

**Q.** What about the “ACTIVITY (nmoles H2 /mg protein/min)” value [3] of the same molecule?
**A.** 43.1 nmoles H2 /mg protein/min

**Q.** Which “ACTIVITY RELATIVE TO FERREDOXIN (%)” value [1] does the source give for `C[n+]1ccnc(CCCCS(=O)(=O)[O-])c1` [Compound 1801] here?
**A.** 79%

**Q.** And the “ACTIVITY (nmoles C2 H4 /mg protein/min)” value [1]?
**A.** 10.7 nmoles C2 H4 /mg protein/min

**Q.** And the “ETHYLENE FORMATION % Ferredoxin Activity” value [1]?
**A.** 79%

**Q.** What about the “% FERREDOXIN ACTIVITY” value [1] of the same molecule?
**A.** 79%

**Q.** What about the “E1/2 vs. SCE (mV)” value [2] of the same molecule?
**A.** -676 mV

**Q.** And the “ACTIVITY RELATIVE TO FERREDOXIN (%)” value [3]?
**A.** 106%

**Q.** What about the “ACTIVITY (nmoles H2 /mg protein/min)” value [3] of the same molecule?
**A.** 28.4 nmoles H2 /mg protein/min

**Q.** What does the source list for `C[n+]1ccnc(C(C)(C)[N+](=O)[O-])c1.[I-]` [Compound 3700, 1-Methyl-3-(1-nitroisopropyl)pyrazinium iodide]?
**A.** ACTIVITY RELATIVE TO FERREDOXIN (%) [1]: 31%; ACTIVITY (nmoles C2 H4 /mg protein/min) [1]: 4.2 nmoles C2 H4 /mg protein/min; ETHYLENE FORMATION % Ferredoxin Activity [1]: 31%; % FERREDOXIN ACTIVITY [1]: 31%; E1/2 vs. SCE (mV) [2]: -701 mV; ACTIVITY RELATIVE TO FERREDOXIN (%) [3]: 32%; ACTIVITY (nmoles H2 /mg protein/min) [3]: 8.6 nmoles H2 /mg protein/min
